Tests used:
Assay type in all cases: cell-based
[1] = biological target: T1, KRAS G12D (Homo sapiens, UniProt P01116, G12D); experiment: KRAS G12D HiBit assay; details: AsPc-1-KRAS (G12D)-HiBit-KI cell, compound treatment for 24 hours, absolute DC50
T1 construct: AsPc-1-KRAS (G12D)-HiBit-KI cell (Pharmaron); host or cells: AsPc-1-KRAS (G12D)-HiBit-KI cells (HiBiT knock-in at the endogenous KRAS locus)
How it was run: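 HiBiT luminescence, detected by adding lytic buffer, substrate and LgBiT protein, served as the KRAS G12D read-out. Compounds, serially diluted 3-fold over 10 points from 0.3 mM DMSO stock, were on cells for 24 h; percent inhibition normalized to cells given 0.1% DMSO only.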

[2] = biological target: T2, KRAS G12V (Homo sapiens, UniProt P01116, G12V); experiment: KRAS G12V HiBit assay; details: SW620-KRAS (G12V)-HiBit-KI cells, compound treatment for 24 hours, class symbols
T2 construct: SW620-KRAS (G12V)-HiBit-KI cell (Pharmaron); host or cells: SW620-KRAS (G12V)-HiBit-KI cells (HiBiT knock-in at the endogenous KRAS locus)
T2 sequence (P01116 1-188 isoform P01116-2 G12V): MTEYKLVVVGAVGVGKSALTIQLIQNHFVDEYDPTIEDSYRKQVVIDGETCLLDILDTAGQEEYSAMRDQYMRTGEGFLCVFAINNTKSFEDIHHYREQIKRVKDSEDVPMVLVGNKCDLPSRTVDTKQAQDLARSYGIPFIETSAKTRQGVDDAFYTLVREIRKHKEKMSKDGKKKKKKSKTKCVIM
How it was run: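 Luminescence from lytic Nano-Glo HiBiT detection with LgBiT read KRAS G12V levels after 24 h compound exposure. Dilutions were 10-point, 3-fold, from a 0.3 mM DMSO stock. Degradation activity was normalised to cells given 0.1% DMSO alone.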

[3] = biological target: T3, KRAS (Homo sapiens, UniProt P01116); experiment: KRASamp MSD assay; details: KE39 (KRAS amplified) cells, treated with test compounds for 24 hr, MSD readout of KRAS degradation
T3 construct: endogenous in cells; host or cells: KE39 (KRAS amplified) cells
T3 sequence (P01116 1-188 isoform P01116-2): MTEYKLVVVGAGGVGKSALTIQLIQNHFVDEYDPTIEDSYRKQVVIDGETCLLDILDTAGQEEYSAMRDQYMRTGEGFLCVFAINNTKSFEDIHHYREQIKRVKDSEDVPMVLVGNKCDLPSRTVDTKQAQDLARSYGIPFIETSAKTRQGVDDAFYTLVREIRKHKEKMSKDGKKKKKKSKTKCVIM
How it was run: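 Degradation DC50 derived by curve fitting, with KRAS levels quantified by MSD electrochemiluminescence (capture/detection antibodies, recombinant WT KRAS standard). Lysates prepared from KE39 cells (KRAS amplified) exposed to test compounds for 24 hr.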

[4] = numeric bounds given in place of class symbols

T1 sequence (P01116 1-188 isoform P01116-2 G12D): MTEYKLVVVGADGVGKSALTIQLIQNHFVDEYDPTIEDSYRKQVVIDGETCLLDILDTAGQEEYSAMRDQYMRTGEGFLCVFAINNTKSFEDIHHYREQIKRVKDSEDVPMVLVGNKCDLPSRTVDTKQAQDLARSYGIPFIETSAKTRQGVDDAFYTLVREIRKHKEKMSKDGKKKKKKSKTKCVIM

| SMILES | DC50 ([1]; class symbols) [nM] | DC50 [2] [nM] | DC50 [3] [nM] | DC50 [1, 4] [nM] |
| --- | --- | --- | --- | --- |
| C#Cc1c(F)ccc2cc(O)cc(-c3ncc4c(N5CCC[C@@](C)(O)C5)nc(OC[C@@]56CCCN5[C@H](COC(=O)N5CCC7(CC5)CC(N5CCC(c8ccc9c(c8)n(C)c(=O)n9C8CCC(=O)NC8=O)CC5)C7)CC6)nc4c3F)c12 (stereo partly drawn) [Compound 158, ((3S,7aS)-7a-(((7-(8-Ethynyl-7-fluoro-3-hydroxynaphthalen-1-yl)-8-fluoro-4-((R)-3-hydroxy-3-methylpiperidin-1-yl)pyrido[4,3-d]pyrimidin-2-yl)oxy)methyl)hexahydro-1H-pyrrolizin-3-yl)methyl-2-(4-(1-(2,6-dioxopiperidin-3-yl)-3-methyl-2-oxo-2,3-dihydro-1H-benzo[d]imidazol-5-yl)piperidin-1-yl)-7-azaspiro[3.5]nonane-7-carboxylate] | < 100 | < 10 | < 1 |  |
| CCc1c(F)ccc2cc(O)cc(-c3ncc4c(N5CCC[C@@](C)(O)C5)nc(OC[C@@]56CCCN5[C@H](COC(=O)N5CCC(CN7CCC(c8ccc9c(c8)n(C)c(=O)n9C8CCC(=O)NC8=O)CC7)C(F)(F)C5)CC6)nc4c3F)c12 (stereo partly drawn) [Compound 397, ((3S,7aS)-7a-(((7-(8-ethyl-7-fluoro-3-hydroxynaphthalen-1-yl)-8-fluoro-4-((R)-3-hydroxy-3-methylpiperidin-1-yl)pyrido[4,3-d]pyrimidin-2-yl)oxy)methyl)hexahydro-1H-pyrrolizin-3-yl)methyl 4-((4-(1-(2,6-dioxopiperidin-3-yl)-3-methyl-2-oxo-2,3-dihydro-1H-benzo[d]imidazol-5-yl)piperidin-1-yl)methyl)-3,3-difluoropiperidine-1-carboxylate] | < 100 | < 10 | < 1 |  |
| CCc1c(F)ccc2cc(O)cc(-c3ncc4c(N5CCC[C@@](C)(O)C5)nc(OC[C@]56CCCN5[C@H](COC(=O)N5CCC(c7cccc8c7n(C)c(=O)n8C7CCC(=O)NC7=O)CC5)CC6)nc4c3F)c12 (stereo partly drawn) [Compound 310, ((3S,7aR)-7a-(((7-(8-ethyl-7-fluoro-3-hydroxynaphthalen-1-yl)-8-fluoro-4-((R)-3-hydroxy-3-methylpiperidin-1-yl)pyrido[4,3-d]pyrimidin-2-yl)oxy)methyl)hexahydro-1H-pyrrolizin-3-yl)methyl 4-(1-(2,6-dioxopiperidin-3-yl)-3-methyl-2-oxo-2,3-dihydro-1H-benzo[d]imidazol-4-yl)piperidine-1-carboxylate] |  | > 100 | 1 to 10 | > 100 |
| CCc1c(F)ccc2cc(O)cc(-c3ncc4c(N5CCC(F)(F)CC5)nc(OC[C@@]56CCCN5[C@H](COC(=O)N5CCC7(CC5)CC(N5CCC(c8ccc9c(c8)n(C)c(=O)n9C8CCC(=O)NC8=O)CC5)C7)CC6)nc4c3F)c12 (stereo partly drawn) [Compound 357, ((3S,7aS)-7a-(((4-(4,4-difluoropiperidin-1-yl)-7-(8-ethyl-7-fluoro-3-hydroxynaphthalen-1-yl)-8-fluoropyrido[4,3-d]pyrimidin-2-yl)oxy)methyl)hexahydro-1H-pyrrolizin-3-yl)methyl 2-(4-(1-(2,6-dioxopiperidin-3-yl)-3-methyl-2-oxo-2,3-dihydro-1H-benzo[d]imidazol-5-yl)piperidin-1-yl)-7-azaspiro[3.5]nonane-7-carboxylate] |  | > 100 | 1 to 10 | > 100 |
| CCc1c(F)ccc2cc(O)cc(-c3ncc4c(N5CCC[C@@](C)(O)C5)nc(OC[C@@]56CCCN5C(CN5CCC(OCCCc7ccc8c(c7)n(C)c(=O)n8C7CCC(=O)NC7=O)CC5)CC6)nc4c3F)c12 (stereo partly drawn) [Compound 384, 3-(5-(3-((1-(((35,7aS)-7a-(((7-(8-Ethyl-7-fluoro-3-hydroxynaphthalen-1-yl)-8-fluoro-4-((R)-3-hydroxy-3-methylpiperidin-1-yl)pyrido[4,3-d]pyrimidin-2-yl)oxy)methyl)hexahydro-1H-pyrrolizin-3-yl)methyl)piperidin-4-yl)oxy)propyl)-3-methyl-2-oxo-2,3-dihydro-1H-benzo[d]imidazol-1-yl) piperidine-2,6-dione] | < 100 | 10 to 100 | 1 to 10 |  |
| C#Cc1c(F)ccc2cc(O)cc(-c3ncc4c(N5CCC[C@@](C)(O)C5)nc(OC[C@@]56CCCN5[C@H](COC(=O)N5CCC(CC#Cc7ccc8c(c7)n(C)c(=O)n8C7CCC(=O)NC7=O)CC5)CC6)nc4c3F)c12 (stereo partly drawn) [Compound 375, ((3S,7aS)-7a-(((7-(8-ethynyl-7-fluoro-3-hydroxynaphthalen-1-yl)-8-fluoro-4-((R)-3-hydroxy-3-methylpiperidin-1-yl)pyrido[4,3-d]pyrimidin-2-yl)oxy)methyl)hexahydro-1H-pyrrolizin-3-yl)methyl 4-(3-(1-(2,6-dioxopiperidin-3-yl)-3-methyl-2-oxo-2,3-dihydro-1H-benzo[d]imidazol-5-yl)prop-2-yn-1-yl)piperidine-1-carboxylate] | < 100 | < 10 | 1 to 10 |  |

Other lines, results leading:

| DC50 ([1]; class symbols) [nM] | DC50 [2] [nM] | DC50 [3] [nM] | DC50 [1, 4] [nM] | SMILES |
| --- | --- | --- | --- | --- |
| < 100 | < 10 | < 1 |  | CCc1c(F)ccc2cc(O)cc(-c3ncc4c(N5CCC[C@@](C)(O)C5)nc(OC[C@@]56CCCN5[C@H](COC(=O)N5CC7(CC(N8CCC(c9ccc%10c(c9)n(C)c(=O)n%10C9CCC(=O)NC9=O)CC8)C7)C5)CC6)nc4c3F)c12 (stereo partly drawn) [Compound 416, ((3S,7aS)-7a-(((7-(8-ethyl-7-fluoro-3-hydroxynaphthalen-1-yl)-8-fluoro-4-((R)-3-hydroxy-3-methylpiperidin-1-yl)pyrido[4,3-d]pyrimidin-2-yl)oxy)methyl)hexahydro-1H-pyrrolizin-3-yl)methyl 6-(4-(1-(2,6-dioxopiperidin-3-yl)-3-methyl-2-oxo-2,3-dihydro-1H-benzo[d]imidazol-5-yl)piperidin-1-yl)-2-azaspiro[3.3]heptane-2-carboxylate] |
|  | < 10 | 1 to 10 | > 100 | CCc1c(F)ccc2cc(O)cc(-c3ncc4c(N5CCC[C@@](C)(O)C5)nc(OC[C@@]56CCCN5[C@H](COC(=O)N5CCC(C#Cc7ccc8c(c7)n(C)c(=O)n8C7CCC(=O)NC7=O)CC5)CC6)nc4c3F)c12 (stereo partly drawn) [Compound 404, ((3S,7aS)-7a-(((7-(8-ethyl-7-fluoro-3-hydroxynaphthalen-1-yl)-8-fluoro-4-((R)-3-hydroxy-3-methylpiperidin-1-yl)pyrido[4,3-d]pyrimidin-2-yl)oxy)methyl)hexahydro-1H-pyrrolizin-3-yl)methyl 4-((1-(2,6-dioxopiperidin-3-yl)-3-methyl-2-oxo-2,3-dihydro-1H-benzo[d]imidazol-5-yl)ethynyl)piperidine-1-carboxylate] |
| < 100 | < 10 | < 1 |  | Cn1c(=O)n(C2CCC(=O)NC2=O)c2ccc(N3CCC(CN4CCN(C(=O)OC[C@@H]5CC[C@]6(COc7nc(N8CCC[C@@](C)(O)C8)c8cnc(-c9cc(O)cc%10ccc(F)cc9%10)c(F)c8n7)CCCN56)CC4)CC3)cc21 (stereo partly drawn) [Compound 445, ((3S,7aS)-7a-(((8-fluoro-7-(7-fluoro-3-hydroxynaphthalen-1-yl)-4-((R)-3-hydroxy-3-methylpiperidin-1-yl)pyrido[4,3-d]pyrimidin-2-yl)oxy)methyl)hexahydro-1H-pyrrolizin-3-yl)methyl 4-((1-(1-(2,6-dioxopiperidin-3-yl)-3-methyl-2-oxo-2,3-dihydro-1H-benzo[d]imidazol-5-yl)piperidin-4-yl)methyl)piperazine-1-carboxylate] |

Reference: patent US12599672B2, “KRAS proteolysis targeting chimeras” (PAQ Therapeutics Inc., priority 2023, dated 2026)
